Experimental data taken from patent publication US9567302B2, “Carbamate compounds and of making and using same” (Abide Therapeutics, Inc., priority 2012, dated 2017).

How the values were obtained:
Assay type in all cases: biochemical
Set-up in all cases: from tissue
MAGL = molecular target: T1, MAGL (Mus musculus, UniProt O35678); assay: In vitro competitive ABPP, % inhibition at fixed concentration, MAGL
T1 sequence (O35678 1-303): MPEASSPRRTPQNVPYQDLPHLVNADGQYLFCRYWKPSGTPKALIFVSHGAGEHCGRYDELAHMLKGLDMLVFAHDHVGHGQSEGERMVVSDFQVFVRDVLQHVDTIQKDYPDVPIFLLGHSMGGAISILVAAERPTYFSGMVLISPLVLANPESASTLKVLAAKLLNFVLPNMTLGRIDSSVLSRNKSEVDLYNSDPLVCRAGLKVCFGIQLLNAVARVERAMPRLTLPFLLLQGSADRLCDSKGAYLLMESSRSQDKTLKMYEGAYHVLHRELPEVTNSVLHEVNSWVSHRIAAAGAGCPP
In short: (§1)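 Mouse brain membrane proteome or cell lysate at 1.0 mg/ml was preincubated with inhibitor for 30 min at 37° C, then labelled with FP-Rh for another 30 min. After SDS-PAGE, activity was quantified from the fluorescent intensity of the MAGL, ABHD6 and FAAH bands.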

FAAH = molecular target: T2, FAAH (Mus musculus, UniProt O08914); assay: In vitro competitive ABPP, % inhibition at fixed concentration, FAAH
T2 sequence (O08914 1-579): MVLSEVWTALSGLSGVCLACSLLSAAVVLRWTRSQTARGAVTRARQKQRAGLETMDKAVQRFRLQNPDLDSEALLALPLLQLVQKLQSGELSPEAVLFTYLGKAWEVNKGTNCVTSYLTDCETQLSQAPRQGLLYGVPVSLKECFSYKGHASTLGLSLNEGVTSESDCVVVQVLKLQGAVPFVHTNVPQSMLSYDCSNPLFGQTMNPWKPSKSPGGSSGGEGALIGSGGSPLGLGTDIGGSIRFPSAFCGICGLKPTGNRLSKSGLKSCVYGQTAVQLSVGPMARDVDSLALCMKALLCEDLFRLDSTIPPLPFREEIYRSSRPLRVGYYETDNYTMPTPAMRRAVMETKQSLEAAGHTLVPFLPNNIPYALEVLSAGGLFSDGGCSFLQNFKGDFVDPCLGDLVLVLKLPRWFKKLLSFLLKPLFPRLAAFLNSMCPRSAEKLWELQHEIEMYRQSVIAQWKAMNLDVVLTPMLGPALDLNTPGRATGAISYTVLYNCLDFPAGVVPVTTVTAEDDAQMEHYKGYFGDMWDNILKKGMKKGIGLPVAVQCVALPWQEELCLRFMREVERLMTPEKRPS
In short: as §1

ABHD6 = molecular target: T3, ABHD6 (Mus musculus, UniProt Q8R2Y0); assay: In vitro competitive ABPP, % inhibition at fixed concentration, ABHD6
T3 sequence (Q8R2Y0 1-336): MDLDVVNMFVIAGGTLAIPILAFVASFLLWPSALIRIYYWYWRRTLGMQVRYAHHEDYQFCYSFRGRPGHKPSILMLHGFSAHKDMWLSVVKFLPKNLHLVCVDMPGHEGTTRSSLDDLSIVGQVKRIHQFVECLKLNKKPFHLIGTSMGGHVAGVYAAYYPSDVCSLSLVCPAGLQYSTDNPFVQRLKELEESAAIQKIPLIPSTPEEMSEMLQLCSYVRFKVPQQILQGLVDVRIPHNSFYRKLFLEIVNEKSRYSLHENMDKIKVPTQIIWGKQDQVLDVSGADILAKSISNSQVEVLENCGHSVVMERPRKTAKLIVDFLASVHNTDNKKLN
In short: as §1

SMILES | inhibition at 1 µM (MAGL) [%] | inhibition at 1 µM (FAAH) [%] | inhibition at 1 µM (ABHD6) [%] | inhibition at 10 µM (MAGL) [%] | inhibition at 10 µM (FAAH) [%] | inhibition at 10 µM (ABHD6) [%]
O=C(ON1C(=O)CCC1=O)N1CCN(Cc2ccc(Cl)cc2N2CCC2)CC1 [Example 112, 2,5-Dioxopyrrolidin-1-yl 4-{[2-(azetidin-1-yl)-4-chlorophenyl]methyl}piperazine-1-carboxylate] | > 75 | < 25 | 25 to 75 | – | – | –
C[C@@H]1CN(Cc2ccc(N3CCOCC3)cc2F)CCN1C(=O)ON1C(=O)CCC1=O [Example 79, 2,5-Dioxopyrrolidin-1-yl (2R)-4-{[2-fluoro-4-(morpholin-4-yl)phenyl]methyl}-2-methylpiperazine-1-carboxylate] | < 25 | < 25 | < 25 | – | – | –
O=C(ON1C(=O)CCC1=O)N1CCN(Cc2cc(C(F)(F)F)ccc2C(=O)N2CCOCC2)CC1 [Example 203, 2,5-Dioxopyrrolidin-1-yl 4-{[2-(morpholine-4-carbonyl)-5-(trifluoromethyl)phenyl]methyl}piperazine-1-carboxylate] | < 25 | < 25 | < 25 | – | – | –
O=C(ON1C(=O)CCC1=O)N1CCN(Cc2ccc(Cl)cc2N2CCN3CCC[C@@H]3C2)CC1 [Example 125, 2,5-Dioxopyrrolidin-1-yl 4-({2-[(8aR)-octahydropyrrolo[1,2-a]piperazin-2-yl]-4-chlorophenyl}methyl)piperazine-1-carboxylate] | > 75 | < 25 | > 75 | – | – | –
C[C@@H]1CN(Cc2ccc(N3CCOCC3)cc2C(F)(F)F)CCN1C(=O)ON1C(=O)CCC1=O [Example 80, 2,5-Dioxopyrrolidin-1-yl (2R)-2-methyl-4-{[4-(morpholin-4-yl)-2-(trifluoromethyl)phenyl]methyl}piperazine-1-carboxylate] | < 25 | < 25 | < 25 | – | – | –
Cc1cnccc1-c1ccc(CN2CCN(C(=O)ON3C(=O)CCC3=O)CC2)c(F)c1 [Example 177, 2,5-Dioxopyrrolidin-1-yl 4-{[2-fluoro-4-(3-methylpyridin-4-yl)phenyl]methyl}piperazine-1-carboxylate] | 25 to 75 | < 25 | > 75 | – | – | –
CC(C)c1cc(N2CCOCC2)ccc1CN1CCN(C(=O)ON2C(=O)CCC2=O)CC1 [Example 187, 2,5-Dioxopyrrolidin-1-yl 4-{[4-(morpholin-4-yl)-2-(propan-2-yl)phenyl]methyl}piperazine-1-carboxylate] | 25 to 75 | < 25 | 25 to 75 | – | – | –
Cc1cc(-c2ccc(CN3CCN(C(=O)ON4C(=O)CCC4=O)CC3)c(C)c2)cc(C)n1 [Example 113, 2,5-Dioxopyrrolidin-1-yl 4-{[4-(2,6-dimethylpyridin-4-yl)-2-methylphenyl]methyl}piperazine-1-carboxylate] | 25 to 75 | < 25 | 25 to 75 | – | – | –
O=C(ON1C(=O)CCC1=O)N1CCN(Cc2cccc(Cl)c2C(=O)N2CCOCC2)CC1 [Example 198, 2,5-Dioxopyrrolidin-1-yl 4-{[3-chloro-2-(morpholine-4-carbonyl)phenyl]methyl}piperazine-1-carboxylate] | < 25 | < 25 | < 25 | – | – | –
Cc1ccc(N2CCOCC2)c(CN2CCN(C(=O)ON3C(=O)CCC3=O)CC2)c1 [Example 127, 2,5-Dioxopyrrolidin-1-yl 4-{[5-methyl-2-(morpholin-4-yl)phenyl]methyl}piperazine-1-carboxylate] | 25 to 75 | < 25 | 25 to 75 | – | – | –
CC(=O)N1CCN(C(=O)ON2C(=O)CCC2=O)CC1 [Example 51, 2,5-Dioxopyrrolidin-1-yl 4-acetylpiperazine-1-carboxylate] | – | – | – | < 25 | < 25 | < 25
C[C@H]1CN(Cc2ccc(N3CCOCC3)cc2C(F)(F)F)CCN1C(=O)ON1C(=O)CCC1=O [Example 77, 2,5-Dioxopyrrolidin-1-yl (2S)-2-methyl-4-{[4-(morpholin-4-yl)-2-(trifluoromethyl)phenyl]methyl}piperazine-1-carboxylate] | 25 to 75 | < 25 | 25 to 75 | – | – | –
Cn1cc(CN2CCN(C(=O)ON3C(=O)CCC3=O)CC2)c(-c2ccccc2Cl)n1 [Example 140, 2,5-Dioxopyrrolidin-1-yl 4-{[3-(2-chlorophenyl)-1-methyl-1H-pyrazol-4-yl]methyl}piperazine-1-carboxylate] | 25 to 75 | < 25 | 25 to 75 | – | – | –
O=C(ON1C(=O)CCC1=O)N1CCN(Cc2ccc(-c3cccc(F)c3)cn2)CC1 [Example 168, 2,5-Dioxopyrrolidin-1-yl 4-{[5-(3-fluorophenyl)pyridin-2-yl]methyl}piperazine-1-carboxylate] | 25 to 75 | < 25 | 25 to 75 | – | – | –
O=C(ON1C(=O)CCC1=O)N1CCC(N2CCCCC2=O)CC1 [Example 220, 2,5-Dioxopyrrolidin-1-yl 4-(2-oxopiperidin-1-yl)piperidine-1-carboxylate] | – | – | – | < 25 | < 25 | 25 to 75
O=C(ON1C(=O)CCC1=O)N1CCN(Cc2ccc(Cl)cc2N2CCC(C(=O)N3CCCC3)CC2)CC1 [Example 116, 2,5-Dioxopyrrolidin-1-yl 4-({4-chloro-2-[4-(pyrrolidine-1-carbonyl)piperidin-1-yl]phenyl}methyl)piperazine-1-carboxylate] | 25 to 75 | < 25 | < 25 | – | – | –
O=C(ON1C(=O)CCC1=O)N1CCN(Cc2cccc(Cl)c2C(=O)N2CCCC2)CC1 [Example 190, 2,5-Dioxopyrrolidin-1-yl 4-{[3-chloro-2-(pyrrolidine-1-carbonyl)phenyl]methyl}piperazine-1-carboxylate] | 25 to 75 | < 25 | < 25 | – | – | –
Cc1cc(-c2ccc(CN3CCN(C(=O)ON4C(=O)CCC4=O)CC3)c(F)c2)ccn1 [Example 166, 2,5-Dioxopyrrolidin-1-yl 4-{[2-fluoro-4-(2-methylpyridin-4-yl)phenyl]methyl}piperazine-1-carboxylate] | 25 to 75 | < 25 | > 75 | – | – | –
Cc1cc(-c2ccc(CN3CCN(C(=O)ON4C(=O)CCC4=O)CC3)c(F)c2)cc(C)n1 [Example 176, 2,5-Dioxopyrrolidin-1-yl 4-{[4-(2,6-dimethylpyridin-4-yl)-2-fluorophenyl]methyl}piperazine-1-carboxylate] | 25 to 75 | < 25 | 25 to 75 | – | – | –
O=C(ON1C(=O)CCC1=O)N1CCN(C(c2ccc3c(c2)OCO3)c2ccc3c(c2)OCO3)CC1 [Example 156, 2,5-Dioxopyrrolidin-1-yl 4-[bis(2H-1,3-benzodioxol-5-yl)methyl]piperazine-1-carboxylate] | 25 to 75 | < 25 | 25 to 75 | – | – | –
O=C(ON1C(=O)CCC1=O)N1CCN(Cc2ccc(Cl)cc2N2CCn3ncnc3C2)CC1 [Example 117, 2,5-Dioxopyrrolidin-1-yl 4-[(4-chloro-2-{5H,6H,7H,8H-[1,2,4]triazolo[1,5-a]pyrazin-7-yl}phenyl)methyl]piperazine-1-carboxylate] | 25 to 75 | < 25 | < 25 | – | – | –
CC(C)c1cc(N2CCCC2)ccc1CN1CCN(C(=O)ON2C(=O)CCC2=O)CC1 [Example 186, 2,5-Dioxopyrrolidin-1-yl 4-{[2-(propan-2-yl)-4-(pyrrolidin-1-yl)phenyl]methyl}piperazine-1-carboxylate] | 25 to 75 | < 25 | 25 to 75 | – | – | –
O=C(ON1C(=O)CCC1=O)N1CCN(Cc2cc(-c3ccccc3)on2)CC1 [Example 137, 2,5-Dioxopyrrolidin-1-yl 4-((5-phenylisoxazol-3-yl)methyl)piperazine-1-carboxylate] | 25 to 75 | < 25 | 25 to 75 | – | – | –
